# Measurements published in patent US20200022964A1, “COMPOSITIONS AND METHODS FOR TREATMENT OF INFLAMMATORY AUTOIMMUNE DISEASES” (New York University, priority 2018, published 2020).
# Legend:
# TNF-tg mice = test: hTNF-tg mouse model of inflammatory arthritis; settings: for serum levels of IL-1β and IL-6: compared with the control group; for clinical scores of arthritis: oral daily from 8 weeks of age, 13 weeks, FFD 10 mg/kg, TFD 50 mg/kg; for therapeutic effects (swelling score): treatment started at average score of approximately eight points, FFD 0.4, 2, 10 mg/kg, TFD 2, 10, 50 mg/kg oral, 8 weeks; for swelling score once the treatment resumed: treatment stopped at 17-week and resumed at 19-week time point
# Experimental: Six mice in each group. Swelling scores were assessed weekly in accordance with the scoring system offered by the company. The swelling scores were taken as the sum of the scores from digits, paws, wrists and ankles with the highest possible score for each mouse at 24. The score system is: 20 digits (0=normal, 0.2=one or more swollen joints), 4 paws (0=normal, 1=noticeable swollen, 2=severe swollen), 2 wrists (0=normal, 1=noticeable swollen, 2=severe swollen), and 2 ankles (0=normal, 2=noticeable swollen, 4=severe swollen). At the end of treatment and observation, mice were sacrificed for collection of sera, spleens and ankles.
# TNF-α = test: qRT-PCR of TNF-α-induced IL-1β, IL-6 and Nos-2 mRNA in BMDMs; assay type: cell-based, mice; settings: TNF-α 10 ng/mL; FFD 1, 10 μM; TFD 0.1, 1 μM; 24 hours
# Experimental: (§1) Primary bone marrow derived macrophages (BMDMs) extraction. BMDMs were isolated from C57BL/6 and TNF-tg mice. After mice were sacrificed by cervical dislocation, the tibia and femur were isolated and both ends of the bones were cut to open the medullary cavity. Bone marrow cells were collected by centrifuge at 13000 g for 90 seconds and seeded in 6-well plates. Prior to their use in experiments, M-CSF (10 ng/ml, 576406, Biolegend) was added for 6 days to the BMDM culture medium.
# qRT-PCR. Total RNA was extracted by RNeasy plus mini kit (74106, QIAGEN) and cDNA was synthesized using SuperScript® Reverse Transcriptase (M314C, promega Corporation). SYBR® Green PCR Master Mix (4309155, Applied Biosystems) was used to perform quantitative real-time PCR (qRT-PCR) and the reaction was performed on a StepOnePlus™ real-time PCR Systems (Applied Biosystems). The mRNA expression level of target genes was calculated by ΔΔCT and fold changes of mRNA levels were normalized to GAPDH.
# DBA/1J mice = test: Collagen induced arthritis model in DBA/1J mice; settings: for loss of cartilage (Safranin O staining of ankle) / serum levels of IL-1β and IL-6 / arthritis clinical scores and incidence / onset of disease: prevention; for arthritis clinical scores and incidence / onset of disease: oral daily from 18 days after immunization, FFD 10 mg/kg, TFD 50 mg/kg; for disease scores: therapeutic, treatment initiated at clinical score of ˜5 points, FFD 0.4, 2, 10 mg/kg, TFD 2, 10, 50 mg/kg oral, 24 days
# cPLA2 = target: T1, cPLA2 (Mus musculus, UniProt P47713); test: CETSA assay in RAW264.7 cells; assay type: binding; design: endogenous in cells; host or cells: RAW264.7; settings: for EC50: CETSA at 49° C., 0.001 μM to 100 μM, read-out: EC50 of prevention of cPLA2 denaturation (isothermal dose response)
# T1 sequence (P47713 1-748): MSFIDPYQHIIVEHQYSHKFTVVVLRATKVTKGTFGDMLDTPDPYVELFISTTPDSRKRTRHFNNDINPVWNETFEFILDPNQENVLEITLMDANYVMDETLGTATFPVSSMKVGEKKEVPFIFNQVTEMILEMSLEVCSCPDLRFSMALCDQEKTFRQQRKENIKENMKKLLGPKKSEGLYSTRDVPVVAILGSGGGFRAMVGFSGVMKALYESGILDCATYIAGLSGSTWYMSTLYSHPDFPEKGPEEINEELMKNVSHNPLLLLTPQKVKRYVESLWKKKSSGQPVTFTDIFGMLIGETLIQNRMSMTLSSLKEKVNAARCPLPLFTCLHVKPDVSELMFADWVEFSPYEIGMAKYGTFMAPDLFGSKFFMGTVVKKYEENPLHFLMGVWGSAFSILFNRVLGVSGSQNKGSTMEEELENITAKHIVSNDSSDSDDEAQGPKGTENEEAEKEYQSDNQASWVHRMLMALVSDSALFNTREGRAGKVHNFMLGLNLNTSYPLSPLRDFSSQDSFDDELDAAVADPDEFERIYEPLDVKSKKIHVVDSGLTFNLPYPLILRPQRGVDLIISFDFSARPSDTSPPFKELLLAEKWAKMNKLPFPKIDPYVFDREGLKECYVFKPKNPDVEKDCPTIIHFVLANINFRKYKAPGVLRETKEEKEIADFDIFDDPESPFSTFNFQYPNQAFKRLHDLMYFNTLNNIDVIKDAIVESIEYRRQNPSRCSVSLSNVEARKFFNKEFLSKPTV
# Experimental: CETSA assay. RAW264.7 cells were treated with FFD (10 μM)/TFD (1 μM) for 1 hour in a 37° C. incubator with 5% CO2. Cells were harvested and divided equally into different tubes, after which the cells were heated to different temperatures for 3 minutes. After lysis via 3 repeated freeze-thaw cycles, samples underwent centrifugation at 20000 g and supernatants were collected for analysis. For the isothermal dose response, a series of ten-fold change concentrations (ranged from 0.001 μM to 100 μM) of FFD/TFD were used to treat cells and no variation in temperature was introduced. The remaining steps are the same as previously reported^5.
# [1] = system: TNFRs expressed on cell surface; test: Flow cytometry of biotin-labelled TNF-α binding to RAW264.7 cell surface; assay type: cell-based; settings: RAW264.7 cells; FFD 10 μM, TFD 1 μM overnight
# Experimental: Flow cytometry. […] RAW 264.7 cells were seeded in a 12-well plate. […] Then the samples were analyzed at NYU core facilities using a FACS Calibur cell analyzer with CellQuest software.
# TNF-α-induced genes = test: RNA-seq of TNF-α-treated BMDMs; assay type: cell-based, mice; settings: TNF-α 10 ng/mL; FFD 10 μM, TFD 1 μM; 24 hours
# Experimental: as §1
# RNAseq and Transcription factors enrichment analysis. […] Total RNA was extracted by RNeasy Mini Kit (74106, Qiagen), and gene expression profiling analyzed by RNA-seq was performed by the NYU Genome Technology Center for RNA sequencing (Illumina HiSeq4000 Sequencing, HiSeq 4000 Single Read 50 Cycle Lane).
EC50 (cPLA2),"Tm of cPLA2 (CETSA melt curve) (cPLA2; RAW264.7 cells, FFD 10 μM, TFD 1 μM, 1 hour, control DMSO 46.09)",SMILES,"clinical scores of arthritis, comparison with MTX (TNF-tg mice; prevention, FFD 10 mg/kg vs MTX 2 mg/kg oral daily)",serum levels of IL-1β and IL-6 (TNF-tg mice; prevention),clinical scores of arthritis (TNF-tg mice; prevention),therapeutic effects (swelling score) (TNF-tg mice),swelling score once the treatment resumed (TNF-tg mice),"TNF-α-induced mRNA expressions of IL-1β, IL-6 and Nos-2 (TNF-α)",loss of cartilage (Safranin O staining of ankle) (DBA/1J mice),serum levels of IL-1β and IL-6 (DBA/1J mice),arthritis clinical scores and incidence (DBA/1J mice),onset of disease (DBA/1J mice),disease scores (DBA/1J mice),binding of TNF-α to the cell surface [1],expression of TNF-α-induced genes (RNA-seq) (TNF-α-induced genes)
102 nM,,CC(C)(C(=O)O)c1ccc(C(O)CCCN2CCC(C(O)(c3ccccc3)c3ccccc3)CC2)cc1 (stereo not shown) [fexofenadine],more effective than MTX,significantly reduced,significant reduction,effective therapeutic effects in a dose-dependent manner,immediate reduction,dose-dependently inhibited,prevented the loss of cartilage,significantly reduced,significantly decrease,delay the onset,dose-dependently ameliorated,did not affect,clearly downregulated
1.45 nM,49.08 °C,CC(C)(C)c1ccc(C(O)CCCN2CCC(C(O)(c3ccccc3)c3ccccc3)CC2)cc1 (stereo not shown) [terfenadine],,significantly reduced,significant reduction,effective therapeutic effects in a dose-dependent manner,immediate reduction,dose-dependently inhibited,prevented the loss of cartilage,significantly reduced,significantly decrease,delay the onset,dose-dependently ameliorated,did not affect,clearly downregulated
